The text below walks through data of patent publication US12012392B2, “Sulfonamide carboxamide compounds” (Inflazome Limited, priority 2017, dated 2024).

NLRP3, sequence (Q96P20 whole entry): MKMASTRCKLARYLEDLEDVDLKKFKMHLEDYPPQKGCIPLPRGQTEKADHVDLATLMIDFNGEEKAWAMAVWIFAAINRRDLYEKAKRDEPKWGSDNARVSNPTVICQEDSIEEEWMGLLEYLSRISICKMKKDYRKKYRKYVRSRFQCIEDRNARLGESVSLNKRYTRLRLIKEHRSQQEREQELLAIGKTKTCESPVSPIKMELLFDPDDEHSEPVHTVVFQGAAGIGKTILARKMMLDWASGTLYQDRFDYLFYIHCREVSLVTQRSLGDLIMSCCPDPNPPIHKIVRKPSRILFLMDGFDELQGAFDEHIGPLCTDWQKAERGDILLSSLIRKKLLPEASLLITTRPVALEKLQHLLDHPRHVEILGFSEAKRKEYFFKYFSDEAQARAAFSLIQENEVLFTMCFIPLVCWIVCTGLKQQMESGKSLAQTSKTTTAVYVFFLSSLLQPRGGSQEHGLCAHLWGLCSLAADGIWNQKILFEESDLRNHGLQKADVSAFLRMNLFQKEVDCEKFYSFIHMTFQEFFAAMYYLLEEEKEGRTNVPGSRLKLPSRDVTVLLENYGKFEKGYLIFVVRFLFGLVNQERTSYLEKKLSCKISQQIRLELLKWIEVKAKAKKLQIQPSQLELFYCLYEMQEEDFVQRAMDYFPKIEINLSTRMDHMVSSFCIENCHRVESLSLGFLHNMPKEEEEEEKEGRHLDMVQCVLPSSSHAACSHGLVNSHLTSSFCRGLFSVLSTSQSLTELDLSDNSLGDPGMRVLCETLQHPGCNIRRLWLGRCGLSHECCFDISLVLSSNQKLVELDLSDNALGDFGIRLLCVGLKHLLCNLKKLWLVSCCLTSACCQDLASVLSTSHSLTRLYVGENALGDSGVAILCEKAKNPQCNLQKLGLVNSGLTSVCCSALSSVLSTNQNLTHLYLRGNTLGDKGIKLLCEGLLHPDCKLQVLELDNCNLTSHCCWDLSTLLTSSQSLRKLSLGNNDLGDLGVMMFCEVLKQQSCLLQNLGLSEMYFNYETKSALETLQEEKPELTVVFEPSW

Tested on in one data set: not listed separately
In words: PK protocol (intravenous and oral administration). Conditions: male, Sprague Dawley, plasma; rat, intravenous, dose 1 mg/kg. Type of data set: in vivo, male Sprague Dawley rats. The method, then:
Pharmacokinetic parameters were determined in male Sprague Dawley rats (Charles River, UK, 250-350 g; or Vital River Laboratory Animal Technology Co Ltd, Beijing, China, 7-9 weeks old). Animals were individually housed during the study and maintained under a 12 h light/dark cycle. Animals had free access to food and water except that some orally dosed animals were food deprived overnight prior to the study. For intravenous administration, compounds were formulated as a solution in water or DMSO:PBS [10:90] in 2 mL/kg dosing volume and administered via tail vein. For oral administration, compounds were formulated as a solution in water or DMSO:water [10:90] in 5 mL/kg dosing volume and administered orally.
Serial blood samples (about 120-300 μL) were taken from each animal at each of 8 time-points post dose (0.083, 0.25, 0.5, 1, 2, 4, 8 and 24 h) or at each of 12 time-points post dose (0.03, 0.1, 0.17, 0.25, 0.5, 1, 2, 4, 6, 8, 12 and 24 h) or pre-dose and at each of 9 time-points post dose (0.25, 0.5, 1, 2, 4, 6, 8, 12 and 24 h). Samples were held on ice for no longer than 30 minutes before centrifugation (10,000 rpm (8,385 g) for 3 minutes; or 5,696 rpm (3,000 g) for 15 minutes) for plasma generation. Plasma was frozen on dry ice prior to bioanalysis. PK parameters were generated from LC-MS/MS data using Dotmatics or Phoenix WinNonlin 6.3 software.
Regarding `CN(CCO)Cc1cc(S(=O)(=O)NC(=O)Nc2c3c(cc4c2CCC4)CCC3)nn1C` [Example 77, N-((1,2,3,5,6,7-Hexahydro-s-indacen-4-yl)carbamoyl)-5-(((2-hydroxyethyl)(methyl)amino)methyl)-1-methyl-1H-pyrazole-3-sulfonamide], the AUC (as a rule, concentration integrated over time) came to 2070 ng·h/mL; the clearance came to 8.1 mL/min/kg; the half-life (usually the time needed for the level to fall by half in the phase considered) was 852 min.
For `CC(C)(O)c1coc(S(=O)(=O)NC(=O)Nc2c3c(cc4c2CCC4)CCC3)c1` [MCC950, reference compound], in that order: 611 ng·h/mL, 27.8 mL/min/kg and 72 min.

Still in this data set, the particulars now being: male, Sprague Dawley, plasma; rat, intravenous, dose 1 mg/kg; read-out: Vdss.
As for `CN(CCO)Cc1cc(S(=O)(=O)NC(=O)Nc2c3c(cc4c2CCC4)CCC3)nn1C` [Example 77, N-((1,2,3,5,6,7-Hexahydro-s-indacen-4-yl)carbamoyl)-5-(((2-hydroxyethyl)(methyl)amino)methyl)-1-methyl-1H-pyrazole-3-sulfonamide], the Vd was 1.9 L/kg.
The same measure, in the same setting: in the case of `CC(C)(O)c1coc(S(=O)(=O)NC(=O)Nc2c3c(cc4c2CCC4)CCC3)c1` [MCC950, reference compound] it was 0.53 L/kg.

In the next data set the target is NLRP3 (Homo sapiens, UniProt Q96P20). Briefly: THP-1 cells pyroptosis assay. Type of data set: cell-based. Conditions: LPS 1 μg/ml, nigericin 5 μM, resazurin read-out. On the set-up: Seed THP-1 cells (25,000 cells/well) containing 1.0 μg/ml LPS; host or cells: THP-1 cells, LPS-primed, nigericin-stimulated. The method, then:
THP-1 cells (ATCC #TIB-202) were grown in RPMI containing L-glutamine (Gibco #11835) supplemented with 1 mM sodium pyruvate (Sigma #S8636) and penicillin (100 units/ml)/streptomycin (0.1 mg/ml) (Sigma #P4333) in 10% Fetal Bovine Serum (FBS) (Sigma #F0804). The cells were routinely passaged and grown to confluency (˜10^6 cells/ml). On the day of the experiment, THP-1 cells were harvested and resuspended into RPMI medium (without FBS). The cells were then counted and viability (>90%) checked by Trypan blue (Sigma #T8154). Appropriate dilutions were made to give a concentration of 625,000 cells/ml. To this diluted cell solution was added LPS (Sigma #L4524) to give a 1 μg/ml Final Assay Concentration (FAC). 40 μl of the final preparation was aliquoted into each well of a 96-well plate. The plate thus prepared was used for compound screening.
The following method step-by-step assay was followed for compound screening. • 1. Seed THP-1 cells (25,000 cells/well) containing 1.0 μg/ml LPS in 40 μl of RPMI medium (without FBS) in 96-well, black walled, clear bottom cell culture plates coated with poly-D-lysine (VWR #734-0317) • 2. Add 5 μl compound (8 points half-log dilution, with 10 μM top dose) or vehicle (DMSO 0.1% FAC) to the appropriate wells • 3. Incubate for 3 hrs at 37° C. and 5% CO2 • 4. Add 5 μl nigericin (Sigma #N7143) (FAC 5 μM) to all wells • 5. Incubate for 1 hr at 37° C. and 5% CO2 • 6. At the end of the incubation period, spin plates at 300×g for 3 mins and remove supernatant • 7. Then add 50 μl of resazurin (Sigma #R7017) (FAC 100 μM resazurin in RPMI medium without FBS) and incubate plates for a further 1-2 hrs at 37° C. and 5% CO2 • 8. Plates were read in an Envision reader at Ex 560 nm and Em 590 nm • 9. IC50 data is fitted to a non-linear regression equation (log inhibitor vs response-variable slope 4-parameters) 96-Well Plate Map
Background: Alamar Blue is a resazurin reagent that responds to reducing activity.
In the case of `CC(C)c1cc(F)cc(C(C)C)c1NC(=O)NS(=O)(=O)c1ccn(C[C@@H](C)O)n1` [Example 27, (R)—N-((4-Fluoro-2,6-diisopropylphenyl)carbamoyl)-1-(2-hydroxypropyl)-1H-pyrazole-3-sulfonamide], the IC50 (as a rule, the point on the concentration scale where inhibition reaches its midpoint) is 640 to 2560 nM.
The same measure, in the same setting: in the case of `CC(C)c1cc(F)cc(C(C)C)c1NC(=O)NS(=O)(=O)c1cc(C2(O)COC2)n(C(C)C)n1` [Example 43, N-((4-Fluoro-2,6-diisopropylphenyl)carbamoyl)-5-(3-hydroxyoxetan-3-yl)-1-isopropyl-1H-pyrazole-3-sulfonamide] it was 640 to 2560 nM.
On the same count and under the same terms, under `CCn1nc(S(=O)(=O)NC(=O)Nc2c(C(C)C)cc(F)cc2C(C)C)cc1C1(O)COC1` [Example 44, 1-Ethyl-N-((4-fluoro-2,6-diisopropylphenyl)carbamoyl)-5-(3-hydroxyoxetan-3-yl)-1H-pyrazole-3-sulfonamide] stands 160 to 640 nM; under `COC1(c2cc(S(=O)(=O)NC(=O)Nc3c(C(C)C)cc(F)cc3C(C)C)nn2C)COC1` [Example 52, N-((4-Fluoro-2,6-diisopropylphenyl)carbamoyl)-5-(3-methoxyoxetan-3-yl)-1-methyl-1H-pyrazole-3-sulfonamide], 160 to 640 nM; under `CC(C)c1cc(F)cc(C(C)C)c1NC(=O)NS(=O)(=O)c1cc(C2(O)CCOCC2)n(C)n1` [Example 54, N-((4-Fluoro-2,6-diisopropylphenyl)carbamoyl)-5-(4-hydroxytetrahydro-2H-pyran-4-yl)-1-methyl-1H-pyrazole-3-sulfonamide], 640 to 2560 nM.
`CN(C(=O)c1cc(S(=O)(=O)NC(=O)Nc2c3c(cc4c2CCC4)CCC3)nn1C)C1CCOCC1` [Example 60, 3-(N-((1,2,3,5,6,7-Hexahydro-s-indacen-4-yl)carbamoyl)sulfamoyl)-N,1-dimethyl-N-(tetrahydro-2H-pyran-4-yl)-1H-pyrazole-5-carboxamide]: the IC50 is 2560 to 10000 nM.
In the case of `CN(C(=O)c1cc(S(=O)(=O)NC(=O)Nc2c3c(cc4c2CCC4)CCC3)nn1C)C1COC1` [Example 63, 3-(N-((1,2,3,5,6,7-Hexahydro-s-indacen-4-yl)carbamoyl)sulfamoyl)-N,1-dimethyl-N-(oxetan-3-yl)-1H-pyrazole-5-carboxamide], the IC50 lay within 640 to 2560 nM.
Same read-out and setting: in the case of `CN(CC(O)CO)C(=O)c1cc(S(=O)(=O)NC(=O)Nc2c3c(cc4c2CCC4)CCC3)nn1C` (stereo not shown) [Example 65, N-(2,3-Dihydroxypropyl)-3-(N-((1,2,3,5,6,7-hexahydro-s-indacen-4-yl)carbamoyl)sulfamoyl)-N,1-dimethyl-1H-pyrazole-5-carboxamide] it was 640 to 2560 nM.
Consider `CC(C)c1cccc(C(C)C)c1NC(=O)NS(=O)(=O)c1cc(C(=O)N2CCOCC2)n(C)n1` [Example 67, N-((2,6-Diisopropylphenyl)carbamoyl)-1-methyl-5-(morpholine-4-carbonyl)-1H-pyrazole-3-sulfonamide], for which the 50% inhibitory concentration (IC50) lay in the range of 640 to 2560 nM.
On the same count and under the same terms, in the case of `COCCN(C)C(=O)c1cc(S(=O)(=O)NC(=O)Nc2c(C(C)C)cccc2C(C)C)nn1C` [Example 68, 3-(N-((2,6-Diisopropylphenyl)carbamoyl)sulfamoyl)-N-(2-methoxyethyl)-N,1-dimethyl-1H-pyrazole-5-carboxamide] it was 2560 to 10000 nM; in that of `COCCN(CCOC)C(=O)c1cc(S(=O)(=O)NC(=O)Nc2c(C(C)C)cccc2C(C)C)nn1C` [Example 69, 3-(N-((2,6-Diisopropylphenyl)carbamoyl)sulfamoyl)-N,N-bis(2-methoxyethyl)-1-methyl-1H-pyrazole-5-carboxamide], 2560 to 10000 nM; in that of `Cn1nc(S(=O)(=O)NC(=O)Nc2c3c(cc4c2CCC4)CCC3)cc1C(=O)N1CCC(O)CC1` [Example 70, N-((1,2,3,5,6,7-Hexahydro-s-indacen-4-yl)carbamoyl)-5-(4-hydroxypiperidine-1-carbonyl)-1-methyl-1H-pyrazole-3-sulfonamide], 2560 to 10000 nM.
Still for that read-out and setting: under `COC1CCN(C(=O)c2cc(S(=O)(=O)NC(=O)Nc3c4c(cc5c3CCC5)CCC4)nn2C)C1` (stereo not shown) [Example 71, N-((1,2,3,5,6,7-Hexahydro-s-indacen-4-yl)carbamoyl)-5-(3-methoxypyrrolidine-1-carbonyl)-1-methyl-1H-pyrazole-3-sulfonamide] stands 2560 to 10000 nM.
Consider `Cn1nc(S(=O)(=O)NC(=O)Nc2c3c(cc4c2CCC4)CCC3)cc1C(=O)N1CCOCC1` [Example 74, N-((1,2,3,5,6,7-Hexahydro-s-indacen-4-yl)carbamoyl)-1-methyl-5-(morpholine-4-carbonyl)-1H-pyrazole-3-sulfonamide], for which the half-inhibitory concentration (IC50) is 640 to 2560 nM.
For `CC(C)c1cccc(C(C)C)c1NC(=O)NS(=O)(=O)c1cc(C(=O)N(C)CCO)n(C)n1` [Example 83, 3-(N-((2,6-Diisopropylphenyl)carbamoyl)sulfamoyl)-N-(2-hydroxyethyl)-N,1-dimethyl-1H-pyrazole-5-carboxamide], the IC50 lay in the range of 640 to 2560 nM.
Consider `Cn1nc(S(=O)(=O)NC(=O)Nc2c3c(cc4c2CCC4)CCC3)cc1C(=O)NCCO` [Example 84, 3-(N-((1,2,3,5,6,7-Hexahydro-s-indacen-4-yl)carbamoyl)sulfamoyl)-N-(2-hydroxyethyl)-1-methyl-1H-pyrazole-5-carboxamide], for which the IC50 fell in the range of 2560 to 10000 nM.
`COCCNC(=O)c1cc(S(=O)(=O)NC(=O)Nc2c3c(cc4c2CCC4)CCC3)nn1C` [Example 85, 3-(N-((1,2,3,5,6,7-Hexahydro-s-indacen-4-yl)carbamoyl)sulfamoyl)-N-(2-methoxyethyl)-1-methyl-1H-pyrazole-5-carboxamide]: the concentration for half-maximal inhibition (IC50) fell in the range of 2560 to 10000 nM.
The same measure, in the same setting: under `CC(C)(O)Cn1cc(S(=O)(=O)NC(=O)Nc2c3c(cc4c2CCC4)CCC3)cn1` [Example 88, N-((1,2,3,5,6,7-Hexahydro-s-indacen-4-yl)carbamoyl)-1-(2-hydroxy-2-methylpropyl)-1H-pyrazole-4-sulfonamide] stands 640 to 2560 nM.
The same measure, in the same setting: in the case of `C[C@@H](O)Cn1cc(S(=O)(=O)NC(=O)Nc2c3c(cc4c2CCC4)CCC3)cn1` [Example 89, (R)—N-((1,2,3,5,6,7-Hexahydro-s-indacen-4-yl)carbamoyl)-1-(2-hydroxypropyl)-1H-pyrazole-4-sulfonamide] it was 640 to 2560 nM; in that of `O=C(Nc1c2c(cc3c1CCC3)CCC2)NS(=O)(=O)c1cnn(C2CCOCC2)c1` [Example 99], 2560 to 10000 nM.
Same read-out and setting: in the case of `O=C(Nc1c2c(cc3c1CCC3)CCC2)NS(=O)(=O)c1cnn(C2CCOC2)c1` (stereo not shown) [Example 100] it was 640 to 2560 nM.
Consider `COCCn1cc(S(=O)(=O)NC(=O)Nc2c3c(cc4c2CCC4)CCC3)cn1` [Example 101], for which the 50% inhibitory concentration (IC50) was 640 to 2560 nM.
As to `O=C(Nc1c2c(cc3c1CCC3)CCC2)NS(=O)(=O)c1ccn(C2COCC2O)n1` (stereo not shown) [Example 105], the IC50 is 160 to 640 nM.
